# US9863956B2, “Differentiation of isobaric amino acids and other species” (Agency for Science, Technology and Research, priority 2009, dated 2018)
# Where no end group is shown, it is not given here.
# Tests used:
# [1] = biological target: bCAII (Bos taurus, UniProt P00921); experiment: SPR affinity measurement (Biacore 3000) of peptide on immobilized bCAII; format: binding, bovine
# Protocol: Affinity measurements were performed using a Biacore 3000 system (GE Heathcare) equipped with research grade CM5 sensor chips (GE Healthcare). The CM5 sensor chip was preconditioned after docking and priming the instrument with HBS-EP (GE Heathcare) buffer. Flow cell 1 (or 3) was used as a reference to subtract nonspecific binding, drift, and bulk refractive index. Using a flow rate of 20 microliters/min, the sensor chip's four flow cells were activated at 25° C. with a 7 min injection of amine-coupling kit (GE Healthcare) (1:1 mixture of 0.4 M EDC and 0.1 M NHS). To create a bCAII surface, 1 mg of bCAII was dissolved in 1 mL of 10 mM sodium acetate (pH 5.0) and injected across flow cell 2 only. Approximately 1000 response units (RU) of bCAII were immobilized onto this surface. Finally, 1.0 M ethanolamine (pH 8.5) was injected across the four flow cells for 4 min to deactivate the surfaces. After bCAII immobilization, the instrument was primed three times using running buffer (1×PBS+3% DMSO). HIRYKR (SEQ ID NO: 2) peptide (26.13 micrograms) was dissolved in 18 microliters DMSO and diluted with HBS-EP buffer to produce a 50 micromolar peptide stock solution. The peptide stock solution was serially diluted by a factor of 2 to a concentration of 390 nM. […]
# [2] = biological target: bovine carbonic anhydrase (bCAII) (Bos taurus, UniProt P00921); experiment: OBOC hexamer peptide library screening with Alexa Fluor 647 labeled bCAII, COPAS Plus bead sorting; format: binding; conditions: 50 nM dye labeled bCAII, 15 hr at 25° C.; on-bead peptide
# Sequence of bovine carbonic anhydrase (bCAII) (P00921 whole entry): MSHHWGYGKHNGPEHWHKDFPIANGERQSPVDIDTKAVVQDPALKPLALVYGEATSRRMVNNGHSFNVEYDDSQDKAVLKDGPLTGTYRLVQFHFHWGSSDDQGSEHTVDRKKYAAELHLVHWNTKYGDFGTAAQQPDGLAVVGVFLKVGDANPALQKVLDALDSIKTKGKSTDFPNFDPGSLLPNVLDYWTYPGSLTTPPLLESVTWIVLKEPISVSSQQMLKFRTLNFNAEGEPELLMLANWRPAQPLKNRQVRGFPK
# Protocol: Alexa Fluor® 647 protein labeling kit (A20173, Invitrogen) was chosen as the reactive dye for labeling bovine carbonic anhydrase (bCAII) following the supplier's protocol. Briefly, 2 mg/mL of bCAII in 0.1 M sodium bicarbonate (pH ˜8.3) was transferred 0.5 mL of bCAII solution into the vial of the reactive dye, and the vial was capped and inverted several times to dissolve the dye completely. The reaction mixture was stirred for 1 hr at room temperature under dark conditions. The Alexa Fluro® 647 labeled bCAII (bCAII-A647) was purified from the mixture using the size exclusion purification resin in the kit. Purified and labeled bCAII-A647 was characterized by NanoDrop (Thermo Scientific) and gel documentation (Typhoon) after SDS-PAGE. […]
# Hit beads were sorted into cone-shaped wells of a 96 well plate using a COPAS Plus. […] The gating region was defined for beads based on their time-of-flight (TOF) and red fluorescence, and the sorting region was chosen for selecting beads based on their time-of-flight (TOF) and uniformity red fluorescence after incubation with bCAII-A647. […] The TOF, red fluorescence, and red fluorescence peak height of the beads were detected using a red diode laser (λ=635 nm). Due to the auto-fluorescence of the beads, the argon ion laser was intentionally turned off to minimize bleed-through effect. […]
# Sequence of bCAII (P00921 whole entry): as above
Substance,"dissociation constant (KD) ([1]; 1:1 Langmuir binding fit, 25° C., peptide 50 micromolar to 390 nM)",binding affinity to the protein bCAII ([1]; conclusion in words),hit in library screening against bCAII (bead fluorescence) [2]
"HIRYKR [hit hexamer peptide from OBOC library screened against bCAII, re-synthesized from Fmoc D-amino acids with a carboxamide C-terminus]",micromolar range,significant binding affinity,hit peptide from the brightest bead
"IQHKRF (not fully specified (residues 1, 2, 3, 4, 5, 6, C-terminus); also: D-amino acids, which residues not given here)",–,–,hit peptide
